≈ marks a conversion by molar mass, not a printed value.
What was measured:
Mycobacterium avium [1] = assay: Antitubercular activity against Mycobacterium avium after 14 days by two fold agar dilution method; type: functional; details: 336 h
[2] = test system: Mycobacterium intracellulare; assay: Antitubercular activity against Mycobacterium intracellulare after 14 days by two fold agar dilution method; type: functional; details: 336 h
[3] = test system: Mycobacterium tuberculosis; assay: Antitubercular activity against rifampicin-sensitive Mycobacterium tuberculosis after 21 days by two fold agar dilution method; type: functional; details: 504 h
Mycobacterium avium [4] = assay: Potency index, ratio of MIC for LVFX to MIC for test compound for antitubercular activity against Mycobacterium avium after 14 days by two fold agar dilution method; type: functional
Mycobacterium avium [5] = assay: Potency index, ratio of MIC for GTFX to MIC for test compound for antitubercular activity against Mycobacterium avium after 14 days by two fold agar dilution method; type: functional
Mycobacterium avium [6] = assay: Potency index, ratio of MIC for rifampicin to MIC for test compound for antitubercular activity against Mycobacterium avium after 14 days by two fold agar dilution method; type: functional
Mycobacterium avium [7] = assay: Potency index, ratio of MIC for isoniazid to MIC for test compound for antitubercular activity against Mycobacterium avium after 14 days by two fold agar dilution method; type: functional
[8] = test system: Mycobacterium intracellulare; assay: Potency index, ratio of MIC for LVFX to MIC for test compound for antitubercular activity against Mycobacterium intracellulare after 14 days by two fold agar dilution method; type: functional
[9] = test system: Mycobacterium intracellulare; assay: Potency index, ratio of MIC for GTFX to MIC for test compound for antitubercular activity against Mycobacterium intracellulare after 14 days by two fold agar dilution method; type: functional
[10] = test system: Mycobacterium intracellulare; assay: Potency index, ratio of MIC for isoniazid to MIC for test compound for antitubercular activity against Mycobacterium intracellulare after 14 days by two fold agar dilution method; type: functional
[11] = test system: Mycobacterium tuberculosis; assay: Potency index, ratio of MIC for LVFX to MIC for test compound for antitubercular activity against rifampicin-sensitive Mycobacterium tuberculosis after 21 days by two fold agar dilution method; type: functional
[12] = test system: Mycobacterium tuberculosis; assay: Potency index, ratio of MIC for rifampicin to MIC for test compound for antitubercular activity against rifampicin-sensitive Mycobacterium tuberculosis after 21 days by two fold agar dilution method; type: functional
[13] = test system: Mycobacterium tuberculosis; assay: Potency index, ratio of MIC for isoniazid to MIC for test compound for antitubercular activity against rifampicin-sensitive Mycobacterium tuberculosis after 21 days by two fold agar dilution method; type: functional
[14] = test system: Mycobacterium tuberculosis; assay: Antitubercular activity against Mycobacterium tuberculosis H37Rv ATCC 27294 assessed as growth inhibition at 6.25 ug/ml by broth dilution assay relative to control; type: functional; details: read-out: GI
[15] = test system: Mycobacterium intracellulare; assay: Antibacterial activity against Mycobacterium intracellulare after 7 days by two fold dilution assay; type: functional; details: 168 h
Mycobacterium xenopi = assay: Antibacterial activity against Mycobacterium xenopi after 7 days by two fold dilution assay; type: functional; details: 168 h
Mycobacteroides chelonae = assay: Antibacterial activity against Mycobacterium chelonae after 7 days by two fold dilution assay; type: functional; details: 168 h
[16] = test system: Mycolicibacterium smegmatis; assay: Antibacterial activity against Mycobacterium smegmatis after 7 days by two fold dilution assay; type: functional; details: 168 h
[17] = test system: Mycobacterium tuberculosis; assay: Antibacterial activity against Mycobacterium tuberculosis H37Rv after 7 days by two fold dilution assay; type: functional; details: 168 h
[18] = Cytotoxicity against African green monkey Vero cells after 72 hrs by MTT assay; type: cell-based; details: chlorocebus sabaeus
[19] = test system: Mycobacterium tuberculosis; assay: Antitubercular activity against Mycobacterium tuberculosis H37Rv after 21 days by broth dilution assay; type: functional; details: 504 h
Mycobacterium avium [20] = assay: Antitubercular activity against Mycobacterium avium; type: functional
[21] = test system: Mycolicibacterium smegmatis; assay: Antitubercular activity against Mycobacterium smegmatis after 30 to 32 hrs; type: functional
[22] = test system: Mycobacterium tuberculosis; assay: Antitubercular activity against non-replicating Mycobacterium tuberculosis H37Rv after 10 days by low oxygen recovery assay; type: functional; details: 240 h
[23] = test system: Mycobacterium tuberculosis; assay: Antitubercular activity against replicating Mycobacterium tuberculosis H37Rv by Alamar Blue assay; type: functional
[24] = test system: Mycolicibacterium smegmatis; assay: Antitubercular activity against Mycobacterium smegmatis CMCC 93202 after 72 hrs; type: functional; details: CMCC 93202, 72 h
[25] = test system: Mycolicibacterium smegmatis; assay: Potency index, ratio of MIC for CPFX to MIC for test compound for antitubercular activity against Mycobacterium smegmatis CMCC 93202 after 72 hrs; type: functional
[26] = test system: Mycolicibacterium smegmatis; assay: Potency index, ratio of MIC for 8-OMe CPFX to MIC for test compound for antitubercular activity against Mycobacterium smegmatis CMCC 93202 after 72 hrs; type: functional
[27] = test system: Mycolicibacterium smegmatis; assay: Potency index, ratio of MIC for MXFX to MIC for test compound for antitubercular activity against Mycobacterium smegmatis CMCC 93202 after 72 hrs; type: functional
[28] = test system: Mycolicibacterium smegmatis; assay: Potency index, ratio of MIC for rifampicin to MIC for test compound for antitubercular activity against Mycobacterium smegmatis CMCC 93202 after 72 hrs; type: functional
[29] = test system: Mycolicibacterium fortuitum; assay: Antitubercular activity against Mycobacterium fortuitum ATCC 6841 by NCCLS method; type: functional
[30] = test system: Mycolicibacterium smegmatis; assay: Antibacterial activity against Mycobacterium smegmatis by NCCLS method; type: functional
[31] = test system: Mycolicibacterium fortuitum; assay: Potency index, ratio of MIC for SPFX to MIC for test compound for antitubercular activity against Mycobacterium fortuitum ATCC 6841 by NCCLS method; type: functional
[32] = test system: Mycolicibacterium smegmatis; assay: Potency index, ratio of MIC for SPFX to MIC for test compound for antibacterial activity against Mycobacterium smegmatis by NCCLS method; type: functional
[33] = test system: Mycobacterium tuberculosis; assay: Antitubercular activity against Mycobacterium tuberculosis H37Rv ATCC 27294 by Alamar Blue assay; type: functional
[34] = test system: Mycobacterium tuberculosis; assay: Potency index, ratio of MIC for MXFX to MIC for test compound for antitubercular activity against non-replicating Mycobacterium tuberculosis H37Rv after 10 days by low oxygen recovery assay; type: functional
Staphylococcus aureus = assay: Antibacterial activity against Staphylococcus aureus after 18 hrs by broth microdilution assay; type: functional
Corynebacterium [35] = assay: Antibacterial activity against Corynebacterium ATCC-25365 after 18 hrs by broth microdilution assay; type: functional; details: ATCC-25365, 18 h
Corynebacterium [36] = assay: Antibacterial activity against Corynebacterium ATCC-29355 after 18 hrs by broth microdilution assay; type: functional; details: ATCC-29355, 18 h
[37] = test system: Mycobacterium tuberculosis; assay: Antitubercular activity against Mycobacterium tuberculosis H37Rv by serial dilution assay; type: functional
[38] = Cytotoxicity against African green monkey Vero cells after 96 hrs by MTT assay; type: cell-based; details: chlorocebus sabaeus
[39] = Selectivity index, ratio of IC50 for African green monkey Vero cells to MIC for Mycobacterium tuberculosis H37Rv; type: toxicity
[40] = test system: Mycobacterium tuberculosis; assay: Potency index, ratio of MIC for perfloxacin to MIC for test compound for antitubercular activity against Mycobacterium tuberculosis H37Rv by serial dilution assay; type: functional

C[C@H]1COc2c(N3C[C@H]4CCCN[C@H]4C3)c(F)cc3c(=O)c(C(=O)O)cn1c23
MIC (Mycobacterium avium [1]): 0.2 to 1.7 µg/mL (≈ 0.516 to 4.39 µM) | MIC [2]: 0.2 to 1.7 µg/mL (≈ 0.516 to 4.39 µM) | MIC [3]: 0.2 to 1.7 µg/mL (≈ 0.516 to 4.39 µM) | Ratio (Mycobacterium avium [4]): 3.2 - 64.2 | Ratio (Mycobacterium avium [5]): 3.2 - 64.2 | Ratio (Mycobacterium avium [6]): 3.2 - 64.2 | Ratio (Mycobacterium avium [7]): 3.2 - 64.2 | Ratio [8]: 1.9 - 8.2 | Ratio [9]: 1.9 - 8.2 | Ratio [10]: 1.9 - 8.2 | Ratio [11]: >=6.5 - 165 | Ratio [12]: >=6.5 - 165 | Ratio [13]: >=6.5 - 165

CC1COc2c(N3CCN(C)CC3)c(F)cc3c(=O)c(C(=O)O)cn1c23 (stereo not drawn) [OFLOXACIN]
inhibition of growth at 6.25 µg/mL [14]: 62 to 96%

NNC(=O)c1ccncc1 [ISONIAZID]
MIC [15]: 12.5 µg/mL (≈ 91.1 µM) | MIC (Mycobacterium xenopi): 12.5 µg/mL (≈ 91.1 µM) | MIC (Mycobacteroides chelonae): 12.5 µg/mL (≈ 91.1 µM) | MIC [16]: 12.5 µg/mL (≈ 91.1 µM) | MIC [17]: 0.05 µg/mL (≈ 0.365 µM) | CC50 at 72 h [18]: 32 µg/mL (≈ 233 µM) | MIC [19]: 1.5 µg/mL (≈ 10.9 µM)

O=C(O)c1cn(-c2ccc(O)cc2)c2cc(N3CCNCC3)c(F)cc2c1=O
MIC (Mycobacterium avium [20]): 6.25 µg/mL (≈ 16.3 µM)

CCn1cc(C(=O)N/N=C/c2c(Cl)cccc2Cl)c(=O)c2cc(F)c(N3CCN(C)CC3)cc21
MIC [21]: 27 µM (≈ 13.6 µg/mL)

COc1c(N2C[C@@H]3CCCN[C@@H]3C2)c(F)cc2c(=O)c(C(=O)O)cn(C3CC3)c12 [MOXIFLOXACIN]
MIC [22]: 9.19 µg/mL (≈ 22.9 µM) | MIC [23]: 0.1 µg/mL (≈ 0.249 µM)

CCn1cc(C(=O)N/N=C/c2cccc(O)c2)c(=O)c2cc(F)c(N3CCN(C)CC3)cc21
MIC [21]: 27.2 µM (≈ 12.3 µg/mL)

O=C(O)c1cn(-c2ccc(F)cc2)c2cc(N3CCNCC3)c(F)cc2c1=O [SARAFLOXACIN]
MIC (Mycobacterium avium [20]): 6.25 µg/mL (≈ 16.2 µM)

CO[C@H]1/C=C/O[C@@]2(C)Oc3c(C)c(O)c4c(O)c(c(/C=N/N5CCN(C)CC5)c(O)c4c3C2=O)NC(=O)/C(C)=C\C=C\[C@H](C)[C@H](O)[C@@H](C)[C@@H](O)[C@@H](C)[C@H](OC(C)=O)[C@@H]1C [RIFAMPIN]
MIC [17]: 0.39 µg/mL (≈ 0.474 µM) | CC50 at 72 h [18]: 7.8 µg/mL (≈ 9.48 µM) | MIC [19]: 1 µg/mL (≈ 1.22 µM)

COc1ccc2cc(C(=O)CN3CCN(c4c(F)cc5c(=O)c(C(=O)O)cn(C6CC6)c5c4OC)CC3)c(=O)oc2c1
MIC [24]: 0.25 µg/mL (≈ 0.433 µM) | Ratio [25]: 2 - 8 | Ratio [26]: 2 - 8 | Ratio [27]: 2 - 8 | Ratio [28]: 2 - 8

CC1(CN)CCN(c2cc3c(cc2F)c(=O)c(C(=O)O)cn3C2CC2)C1 (stereo not drawn)
MIC [29]: ≤ 0.03 µg/mL | MIC [30]: 0.06 µg/mL (≈ 0.167 µM) | Ratio [31]: >=2 | Ratio [32]: >=2

C[C@@H]1CN(c2c(F)c(N)c3c(=O)c(C(=O)O)cn(C4CC4)c3c2F)C[C@H](C)N1 [SPARFLOXACIN]
MIC [29]: 0.06 µg/mL (≈ 0.153 µM) | MIC [30]: 0.13 µg/mL (≈ 0.331 µM)

CC1COc2c(N3CCN(S(=O)(=O)c4ccc([N+](=O)[O-])cc4)CC3)c(F)cc3c(=O)c(C(=O)O)cn1c23 (stereo not drawn)
CC50 at 72 h [18]: > 33 µg/mL | inhibition of growth at 6.25 µg/mL [14]: 99% | MIC [33]: 2.23 µg/mL (≈ 4.19 µM)

Cc1c(N2CCC(=CO)CC2)c(F)cc2c(=O)c(C(=O)O)cn(C3CC3)c12
MIC [22]: 2.95 µg/mL (≈ 7.92 µM) | MIC [23]: 0.1 µg/mL (≈ 0.269 µM) | Ratio [34]: 3.1

CCn1cc(C(=O)N/N=C2\C(=O)N(Cc3ccccc3)c3ccccc32)c(=O)c2ccc(C)nc21
MIC [15]: 0.625 µg/mL (≈ 1.34 µM) | MIC (Mycobacterium xenopi): 0.625 µg/mL (≈ 1.34 µM) | MIC (Mycobacteroides chelonae): 0.625 µg/mL (≈ 1.34 µM) | MIC [16]: 0.625 µg/mL (≈ 1.34 µM)

O=C(O)c1cn(C2CC2)c2cc(N3CCNCC3)c(F)cc2c1=O [CIPROFLOXACIN]
MIC (Staphylococcus aureus): 1 to 2 µg/mL (≈ 3.02 to 6.04 µM) | MIC (Corynebacterium [35]): 1 to 2 µg/mL (≈ 3.02 to 6.04 µM) | MIC (Corynebacterium [36]): 1 to 2 µg/mL (≈ 3.02 to 6.04 µM)

CCn1cc(C(=O)O)c(=O)c2cc(F)c(N3CCN(C)CC3)cc21 [PEFLOXACIN]
MIC [37]: 4 µg/mL (≈ 12 µM)

Cn1cc(C(=O)O)c(=O)c2cc(F)c(N3CCN(c4nnc(SCC(=O)c5ccc([N+](=O)[O-])cc5)s4)CC3)cc21
MIC [19]: 0.5 µg/mL (≈ 0.855 µM) | MIC (Staphylococcus aureus): 0.5 to 1 µg/mL (≈ 0.855 to 1.71 µM) | MIC (Corynebacterium [35]): 0.5 to 1 µg/mL (≈ 0.855 to 1.71 µM) | MIC (Corynebacterium [36]): 0.5 to 1 µg/mL (≈ 0.855 to 1.71 µM) | CC50 at 96 h [38]: > 6.1 µg/mL | selectivity ratio [39]: > 12.2

CCn1cc(C(=O)O)c(=O)c2cc(F)c(OCCOCCOCCOCCOCCOc3cc4c(cc3F)c(=O)c(C(=O)O)cn4CC)cc21
MIC [37]: 0.8 µg/mL (≈ 1.14 µM) | Ratio [40]: 5
